The values below come from patent publication US11819498B2, “Methods and compositions for treating autophagy related disease states and conditions utilizing AMPK activation” (UNM RAINFOREST INNOVATIONS, priority 2019, dated 2023).

Where a SMILES comes first, the peptide text is derived from it. The star is where a group is joined. βNA = c1ccc2cc(N*)ccc2c1

One test concerns AMPKα1. In words: Western blot of Huh7 cells treated with TAK1 inhibitor and LLOMe. Particulars: TAK1 inhibitor 1 h prior to 1 mM LLOMe 30 min. The format is cell-based. As to the method:
(§1) Western blotting and co-immunoprecipitation (co-IP) were performed as described previously (Chauhan et al., 2016). For TAK1 inhibition, the cells were treated with TAK1 inhibitor (5Z-oxozeanol) 1 h prior to LLOMe treatment. For co-IP, cells were transfected with plasmids as indicated in figures and lysed in NP-40 buffer containing protease inhibitor cocktail and PMSF. Lysates were incubated with antibodies at 4° C. for 4 h followed by incubation with protein G Dynabeads for 2 h at 4° C. Beads were washed three times with PBS and boiled with SDS containing sample buffer, samples were processed for immunoblotting to analyze the interactions between immunoprecipitated proteins.

The test system of the next test is TAK1. Nature of the test: Western blot of HeLa cells treated with TAK1 inhibitor and LLOMe. The format is cell-based. As to conditions: 1 mM LLOMe 30 min (FIG. 5C). As to the method:
as §1

In a further test the test system is LC3. Nature of the test: LC3 response in Huh7 and HeLa cells treated with TAK1 inhibitor and LLOMe. The format is cell-based. Particulars: with LLOMe (FIG. 5C). As to the method:
as §1

In the next test the test system is autophagy. As to conditions: cited studies; cited from earlier work.
Test [1] concerns Gal9 complexes with AMPK and TAK1. In words: APEX2-Gal9 proximity biotinylation and co-IP after LLOMe. The format is cell-based. As to the method:
as §1

Another test has as its system AMPK. In words: Western blot of AMPK activation upon lysosomal damage by damaging agents. The format is cell-based. As to conditions: HEK293T cells, time and dose dependent, Western blot (FIGS. 4SE-F). As to the method:
as §1

A further test has as its system AMPKα1 on lysosomes. In words: LysoIP lysosome purification and immunoblot. The format is cell-based. As to conditions: HEK293T cells, 1 mM LLOMe 30 min, LysoIP (FIG. 6B). As for the experimental part: Stable LysoIP cells were produced, by utilizing lentiviruses constructs from David M. Sabatini Lab (White Head Institute). HEK293T cells were transfected with pLJC5-TMEM192-3xHA or pLJC5-TMEM192-2XFLAG constructs in combination with pCMV-VSV-G and psPAX2 packaging plasmids, 60 h after transfection, the supernatant containing lentiviruses was collected and centrifuged to remove cells and then frozen at −80° C. To establish LysoIP stably expressing cell lines, HEK293T, Huh7 or Huh7 Gal9^KO cells were plated in […] in DMEM with 10% FBS and infected with 500 μL of virus-containing media overnight followed by addition of 1 μg/mL puromycin for selection. Cells were plated in 15 cm^2 culture plates and were used at 90% confluency for each LysoIP. Cells with or without 1 mM LLOMe treatment were quickly rinsed twice with PBS and then scraped in 1 mL of KPBS (136 mM KCl, 10 mM KH2PO4, pH7.25 was adjusted with KOH) and centrifuged at 3000 rpm for 2 min at 4° C. Pelleted cells were resuspended in 950 μL KPBS and reserved 25 μL for further processing of the whole-cell lysate. The remaining cells were gently homogenized with 20 strokes of a 2 mL homogenizer. The homogenate was then centrifuged at 3000 rpm for 2 min at 4° C. and the supernatant was incubated with 100 μL of KPBS prewashed anti-HA magnetic beads (ThermoFisher) on a gentle rotator shaker for 3 min. […]

The subject of a further test is ALIX puncta. In words: ALIX puncta by high content microscopy in THP-1 cells. The format is cell-based. As to conditions: 250 μM metformin 2 h or 250 μM LLOMe 1 h (FIG. 5SF). As for the experimental part: (§2) The cells were plated in 96 well plates on day 1 and were treated on day 2, followed by fixation in 4% paraformaldehyde for 5 min. After fixation, cells were washed twice with 1×PBS and were then permeabilized with 0.1% saponin in 3% Bovine serum albumin (BSA) for 30 min. The cells were then incubated with primary antibodies O/N at 4° C. On day3, the cells were washed twice with 1×PBS and incubated with secondary antibodies for 1 h followed by 5 min incubation with Hoechst 33342. High content microscopy with automated image acquisition and quantification was carried out using a Cellomics HCS scanner and iDEV software (ThermoFisher Scientific). Automated epifluorescence image collection was performed for a minimum of 500 cells per well. Epifluorescence images were machine analyzed using preset scanning parameters and object mask definitions. Hoechst 33342 staining was used for autofocus and to automatically define cellular outlines based on background staining of the cytoplasm. Primary objects were cells, and regions of interest (ROI) or targets were algorithm-defined by shape/segmentation, maximum/minimum average intensity, total area and total intensity, etc., to automatically identify puncta or other profiles within valid primary objects. All data collection, processing (object, ROI, and target mask assignments) and analyses were computer driven independently of human operators.

Test [2] relates to LysoTracker Red staining of acidified compartments such as lysosomes. In words: LysoTracker assay in THP-1 cells. The format is cell-based. Particulars: 250 μM for 2 h (FIG. 5SD). As for the experimental part: Prepare fresh LysoTracker Staining Solution (2 μL LysoTracker in 1 mL medium). Add 10 μL LysoTracker Staining Solution to no treatment, LLOMe treated or Metformin treated THP-1 cells in 96 wells for total 100 μL per well and incubate at 37° C. for 30 min protected from light. Rinse gently by 1×PBS and fix in 4% Paraformaldehyde for 2 min. Wash once by 1×PBS and blot with Hoechst 33342 for 2 min before detecting by high content microscopy.

Another test relates to Gal9 puncta. In words: Gal9 puncta by high content microscopy in metformin-treated cells. The format is cell-based. As to the method: as §2
The next test concerns Gal8 puncta. In words: Gal8 puncta by high content microscopy in THP-1 cells. As to conditions: 250 μM for 2 h, HCM (FIG. 5SB). The format is cell-based. As to the method: as §2
For a further test, the system named is ubiquitin puncta. Nature of the test: Ubiquitin puncta by high content microscopy in THP-1 cells. The format is cell-based. Particulars: 250 μM metformin 2 h compared with 250 μM LLOMe 1 h (FIG. 5SC). As to the method: as §2
In another test the test system is LC3 puncta. Nature of the test: LC3 puncta by high content microscopy in THP-1 cells. The format is cell-based. Particulars: 250 μM metformin 2 h, compared with LLOMe (FIG. 7A). As for the experimental part: as §2

As for `COc1cc(O)c2c(c1)/C=C/C[C@H](O)[C@H](O)C(=O)/C=C\C[C@H](C)OC2=O` [5ZO, (5-Z)-7-oxozeaenol], in the test with AMPKα1, the “AMPKα1 activation upon lysosomal damage” value is “prevented AMPKα1 activation”. For the same compound, in the test on TAK1, the “TAK1 activation with LLOMe” value was “suppressed TAK1 activation”, the “phosphorylation of AMPK substrate ACC (pS79)” value is reported as “inhibition of phosphorylation” and the “phosphorylation of AMPKα1 (pT172)” value is given as “inhibition of phosphorylation”. The LC3 response result with LC3 was “reduced the LC3 response”.

`Br.COC(=O)[C@H](CC(C)C)NC(=O)[C@@H](N)CC(C)C` [LLOMe, Leu-Leu methyl ester hydrobromide]: the autophagy induction entry with autophagy was “has been shown to induce autophagy”. Moreover, the “association between AMPK and Gal9” value in [1] (APEX2-Gal9 proximity biotinylation, 30 min of exposure (FIG. 4SA)) is reported as “increased association”. Moreover, the “mCherry-Gal9 association with GFP-TAK1” value in test [1] (HeLa Flp-In Gal9 Tet-ON cells, 30 min of treatment (FIG. 4SB)) is given as “A similar increase”. Besides, the “AMPK activation upon lysosomal damage” value in the test on AMPK is on record as “activated”. The “AMPKα1 on purified lysosomes” value with AMPKα1 on lysosomes was “enrichment of AMPKα1 on lysosomes”. In addition, the ALIX puncta response result in the test on ALIX puncta is “a robust response”.

With `NCC(=O)N[C@@H](Cc1ccccc1)C(=O)Nc1ccc2ccccc2c1` [GPN, Gly-Phe β-naphthylamide] (H-Gly-Phe-βNA), the “AMPK activation upon lysosomal damage” value with AMPK is recorded as “activated”.

Take `CN(C)C(=N)N=C(N)N` [metformin]: in test [2], the “LysoTracker Red staining” value was “a decrease in staining”. In addition, in the test on Gal9 puncta (Huh7 or 293T cells), the “response of Huh7 or 293T cells to metformin” value is given as “did not respond”. In the test with Gal9 puncta (THP-1 cells, 250 μM for 2 h, HCM (FIG. 5SB)), the “lysosomal damage response, Gal9 puncta formation” value is listed as “lysosomal damage response by detecting Gal9 puncta formation”. Further, the “puncta stained for Gal8” value in the test with Gal8 puncta was “an increase in puncta stained for Gal8”. In the test on ubiquitin puncta, the “ubiquitination response (ubiquitin puncta)” value was “a ubiquitination response albeit of a lesser magnitude than when applying an overt lysosomal damaging agent LLOMe”. Moreover, the “LC3 response (average area of LC3 puncta per cell)” value in the test on LC3 puncta is recorded as “a similar LC3 response”. For the same compound, the ALIX puncta response entry in the test with ALIX puncta is recorded as “a milder but significant response”.
